Data from patent US8906868B2, “Aminoglycoside derivatives” (Rempex Pharmaceuticals, Inc., priority 2010, dated 2014).
Read-outs that look alike come from different tables or passages of the source.

What was measured:
[1] = tested on: Klebsiella pneumonia (ATCC 43816); test: MIC, broth microdilution; conditions: Klebsiella pneumoniae
[2] = tested on: various bacteria; test: MICs of 44 and 45, representative strains and strains expressing aminoglycoside modifying enzymes; type: cell-based; conditions: Tables 7 and 8, frequently
Protocol: To compare microbiological activity of the test compounds, minimum inhibitory concentrations (MIC.s) were determined. Antibiotic MICs were obtained using the broth microdilution method according to Clinical and Laboratory Standards Institute (CLSI) approved guidelines (Methods for dilution antimicrobial susceptibility tests for bacteria that grow aerobically; approved standard—7th ed. CLSI document M7-A7. Clinical and Laboratory Standards Institute, Wayne, Pa., incorporated herein by reference in its entirety). Antibiotics were dissolved as specified by CLSI (Performance standards for antimicrobial susceptibility testing; Seventeenth informational supplement. CLSI document M100-S17. Clinical and Laboratory Standards Institute, Wayne, Pa., incorporated herein by reference in its entirety), and were serially diluted 2-fold in cation adjusted Mueller Hinton Broth (CaMHB) at 2× concentration. Bacterial inoculums were prepared in CaMHB by suspension of a colony from an agar plate that was prepared the previous day to obtain a final concentration of 5×10^5CFU/ml. The plates were incubated for 18 hours at 35° C. […] MIC.s were determined by reading the turbidity of plate wells using a SpectraMax Plus384 plate reader (Molecular Devices, Sunnyvale, Calif., USA) at 600 nm and were confirmed by visual inspection.

[3] = tested on: rats; test: Nephrotoxicity of test compounds in rats; conditions: once daily subcutaneous
[4] = ATCC43816, read-out: Compound MIC on Bacterial Strains: K. pneumonia ATCC 43816
[5] = ATCC43816, read-out: MIC Klebsiella pneumoniae KPM1001 ATCC 43816

In the case of `CN[C@@H]1C(O)[C@@H](OC2C(O)C(O[C@H]3O[C@H](CNC[C@@H](O)CO)CCC3N)[C@@H](N)C[C@H]2NC(=O)[C@@H](O)CN)OCC1(C)O` (stereo partly drawn) [Compound 44], the MIC [1, 4] is reported as less than 1 µg/mL, the MIC [1, 5] is reported as less than 1 µg/mL and the “fold more active than 45 (MIC)” value [2] is reported as 2- to 4 fold. For the same compound, the “Histopathology Results After 7 days of Dosing” value ([3]; 30 mg/kg/day) was “No change”, the “Histopathology Results After 14 days of Dosing” value ([3]; 30 mg/kg/day) was “No change” and the “Histopathology Results After 7 days of Dosing” value ([3]; 60 mg/kg/day) was “No change”. The “Histopathology Results After 14 days of Dosing” value ([3]; 60 mg/kg/day) was “Minimal Hyaline-droplet”.
Compound `CN[C@@H]1[C@@H](O)[C@@H](O[C@@H]2[C@@H](O)[C@H](O[C@H]3O[C@H](CNC[C@H](O)CO)CC[C@H]3N)[C@@H](N)C[C@H]2NC(=O)[C@@H](O)CN)OC[C@]1(C)O` [Compound 45, (S)-3-amino-N-((1R,2S,3S,4R,5S)-5-amino-4-((2R,3R,6S)-3-amino-6-(((S)-2,3-dihydroxypropylamino)methyl)tetrahydro-2H-pyran-2-yloxy)-2-((2R,3R,4R,5R)-3,5-dihydroxy-5-methyl-4-(methylamino)tetrahydro-2H-pyran-2-yloxy)-3-hydroxycyclohexyl)-2-hydroxypropanamide] has an MIC [1, 4] of less than 1 µg/mL and an MIC [1, 5] of less than 1 µg/mL.
